Assay results reported in BindingDB's records for doi:10.7270/Q2VQ314Z (Burnham Center For Chemical Genomics, 2010).

These molecules were tested against T1, Tyrosine-protein phosphatase non-receptor type 7 (Homo sapiens, UniProt P35236) (assay: HePTP phosphatase inhibitors, dose response, biochemical, fluorescence, OMFP substrate, HTS hits, set 2 (AID 435032)).
T1 sequence (P35236 whole entry): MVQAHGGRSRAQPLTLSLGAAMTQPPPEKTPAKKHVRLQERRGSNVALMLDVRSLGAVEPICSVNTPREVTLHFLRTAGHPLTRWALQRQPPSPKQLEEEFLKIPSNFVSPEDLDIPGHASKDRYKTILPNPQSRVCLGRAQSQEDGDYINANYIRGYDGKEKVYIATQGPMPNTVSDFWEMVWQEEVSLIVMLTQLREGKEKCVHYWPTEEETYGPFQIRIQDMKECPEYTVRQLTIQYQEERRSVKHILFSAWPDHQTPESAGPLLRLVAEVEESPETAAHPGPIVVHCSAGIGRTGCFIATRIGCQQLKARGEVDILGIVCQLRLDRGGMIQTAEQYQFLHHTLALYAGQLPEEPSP

Row | SMILES | IC50 [µM]
1 | N=C(NN=Cc1ccc2c(c1)OCO2)Sc1cc(O)n(-c2ccc(C(=O)O)cc2)c1O [4-(3-{[[(2E)-2-(1,3-benzodioxol-5-ylmethylene)hydrazino](imino)methyl]thio}-2,5-dioxopyrrolidin-1-yl)benzoic acid] | 7.33
2 | CCOC(=O)NC(=O)C(C=Nc1ccc(C)cc1)C(=O)NC(=O)OCC [ethyl 2-{[(ethoxycarbonyl)amino]carbonyl}-3-(4-toluidino)acryloylcarbamate] | > 79.4

Results, then the molecule that gave them:

Row | IC50 [µM] | SMILES
3 | > 79.4 | Cc1ccc(NN=C2C(=O)N(CN3CCOCC3)c3ccccc32)cc1 [(3Z)-3-[(4-methylphenyl)hydrazinylidene]-1-(4-morpholinylmethyl)-2-indolone]
4 | > 79.4 | O=C1C([N+](=O)[O-])=CC(Br)=CC1/C=N/n1cnnc1 (stereo not given) [MLS000714804]
5 | 14.9 | COC1=CC=CC(/C=N/NC(=O)c2cc3cc([N+](=O)[O-])ccc3s2)C1=O (stereo not given) [SMR000237814]
